Test results taken from patent US10093630B2, “Pyrazole compounds and methods of making and using same” (ABIDE THERAPEUTICS, INC., priority 2014, dated 2018).

Key:
Test in all cases: In vitro competitive activity-based protein profiling (gel-based, FP-Rh or HT-01 probe)
Format in all cases: biochemical
[1] = molecular target: T1, ABHD6 (Mus musculus, UniProt Q8R2Y0); conditions: for inhibition at 1 µM: 1 μM inhibitor, read-out: % Inhibition at 1 μM, C = ABHD6; for inhibition at 10 µM: 10 μM inhibitor, read-out: % Inhibition at 10 μM, C = ABHD6
T1 construct: Proteomes (mouse brain membrane fraction or cell lysates); from tissue; host or cells: mouse brain membrane fraction (or cell lysates, not specified)
T1 sequence (Q8R2Y0 1-336): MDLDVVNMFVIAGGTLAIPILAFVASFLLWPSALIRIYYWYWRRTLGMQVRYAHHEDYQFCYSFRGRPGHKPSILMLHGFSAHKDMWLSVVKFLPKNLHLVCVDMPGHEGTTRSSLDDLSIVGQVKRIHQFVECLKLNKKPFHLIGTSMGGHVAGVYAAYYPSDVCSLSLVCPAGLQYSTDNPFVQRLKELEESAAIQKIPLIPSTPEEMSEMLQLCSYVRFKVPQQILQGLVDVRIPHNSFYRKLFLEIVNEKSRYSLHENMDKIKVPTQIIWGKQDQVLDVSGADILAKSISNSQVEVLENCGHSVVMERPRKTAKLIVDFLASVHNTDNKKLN
Protocol: (§1) In Vitro Competitive Activity-Based Protein Profiling.
(§2) Proteomes (mouse brain membrane fraction or cell lysates) (50 μL, 1.0 mg/mL total protein concentration) were preincubated with varying concentrations of inhibitors at 37° C. After 30 min, FP-Rh or HT-01 ([…], 50 μM in DMSO) was added and the mixture was incubated for another 30 min at 37° C. Reactions were quenched with SDS loading buffer (15 μL—4×) and run on SDS-PAGE. Following gel imaging, serine hydrolase activity was determined by measuring fluorescent intensity of gel bands corresponding to MAGL, ABHD6, FAAH, and PLA2G7 using ImageJ 1.43u software.

[2] = molecular target: T2, FAAH (Mus musculus, UniProt O08914); conditions: for inhibition at 1 µM: 1 μM inhibitor, read-out: % Inhibition at 1 μM, B = FAAH; for inhibition at 10 µM: 10 μM inhibitor, read-out: % Inhibition at 10 μM, B = FAAH
T2 construct: Proteomes (mouse brain membrane fraction or cell lysates); from tissue; host or cells: mouse brain membrane fraction (or cell lysates, not specified)
T2 sequence (O08914 1-579): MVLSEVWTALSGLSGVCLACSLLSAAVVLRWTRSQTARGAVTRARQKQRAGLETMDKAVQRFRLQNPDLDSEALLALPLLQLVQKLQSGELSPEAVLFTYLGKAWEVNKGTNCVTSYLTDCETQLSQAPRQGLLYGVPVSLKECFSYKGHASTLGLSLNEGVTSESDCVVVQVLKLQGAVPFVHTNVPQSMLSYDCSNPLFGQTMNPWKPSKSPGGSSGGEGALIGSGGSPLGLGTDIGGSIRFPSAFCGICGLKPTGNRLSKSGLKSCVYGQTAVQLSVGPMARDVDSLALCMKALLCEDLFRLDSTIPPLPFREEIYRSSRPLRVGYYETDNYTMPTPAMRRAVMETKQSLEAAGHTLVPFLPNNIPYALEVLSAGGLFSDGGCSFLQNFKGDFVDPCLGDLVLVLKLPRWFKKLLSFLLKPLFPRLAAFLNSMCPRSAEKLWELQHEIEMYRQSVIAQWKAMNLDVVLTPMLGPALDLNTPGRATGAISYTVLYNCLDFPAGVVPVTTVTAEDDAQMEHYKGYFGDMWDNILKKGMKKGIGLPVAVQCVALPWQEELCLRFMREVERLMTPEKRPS
Protocol: as §1, §2

[3] = molecular target: T3, MAGL (Mus musculus, UniProt O35678); conditions: for inhibition at 1 µM: 1 μM inhibitor; for inhibition at 10 µM: 10 μM inhibitor
T3 construct: Proteomes (mouse brain membrane fraction or cell lysates); from tissue; host or cells: mouse brain membrane fraction (or cell lysates, not specified)
T3 sequence (O35678 1-303): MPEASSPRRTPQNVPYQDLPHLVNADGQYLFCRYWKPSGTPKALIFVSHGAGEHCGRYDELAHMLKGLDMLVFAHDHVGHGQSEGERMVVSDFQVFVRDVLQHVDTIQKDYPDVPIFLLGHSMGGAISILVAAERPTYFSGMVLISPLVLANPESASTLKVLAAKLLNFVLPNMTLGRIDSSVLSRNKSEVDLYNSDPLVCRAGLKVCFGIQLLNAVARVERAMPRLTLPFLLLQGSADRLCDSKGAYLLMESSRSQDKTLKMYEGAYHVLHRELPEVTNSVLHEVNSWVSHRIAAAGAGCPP
Protocol: as §1, §2

[4] = molecular target: T4, PLA2G7 (Mus musculus, UniProt Q60963); conditions: for inhibition at 1 µM: 1 μM inhibitor, read-out: % Inhibition at 1 μM, D = PLA2G7; for inhibition at 10 µM: 10 μM inhibitor, read-out: % Inhibition at 10 μM, D = PLA2G7
T4 construct: Proteomes (mouse brain membrane fraction or cell lysates); from tissue; host or cells: mouse brain membrane fraction (or cell lysates, not specified)
T4 sequence (Q60963 22-440): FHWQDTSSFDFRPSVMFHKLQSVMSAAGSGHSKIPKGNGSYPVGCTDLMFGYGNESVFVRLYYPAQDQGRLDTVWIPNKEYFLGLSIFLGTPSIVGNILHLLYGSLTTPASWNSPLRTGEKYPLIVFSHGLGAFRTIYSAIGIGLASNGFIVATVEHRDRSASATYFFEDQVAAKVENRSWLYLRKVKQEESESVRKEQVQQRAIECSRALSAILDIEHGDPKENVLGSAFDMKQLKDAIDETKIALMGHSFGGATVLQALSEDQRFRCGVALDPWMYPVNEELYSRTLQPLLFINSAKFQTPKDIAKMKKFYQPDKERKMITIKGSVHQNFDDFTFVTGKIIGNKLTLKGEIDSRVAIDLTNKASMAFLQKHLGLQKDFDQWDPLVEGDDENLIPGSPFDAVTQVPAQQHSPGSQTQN
Protocol: as §1, §2

Row | SMILES | inhibition at 1 µM [1] [%] | inhibition at 10 µM [1] [%] | inhibition at 1 µM [2] [%] | inhibition at 10 µM [2] [%] | inhibition at 1 µM [3] [%] | inhibition at 10 µM [3] [%] | inhibition at 1 µM [4] [%] | inhibition at 10 µM [4] [%] | IC50 ([1]; mouse brain membrane fraction or cell lysates, 30 min preincubation at 37° C., read-out: Mouse (IC50 value, nM) ABHD6) [nM] | IC50 ([2]; mouse brain membrane fraction or cell lysates, 30 min preincubation at 37° C., read-out: Mouse (IC50 value, nM) FAAH) [nM] | IC50 ([3]; mouse brain membrane fraction or cell lysates, 30 min preincubation at 37° C., read-out: Mouse (IC50 value, nM) MAGL) [nM]
1 | O=C(N1CCN(Cc2ccc3ccccc3c2)CC1)n1cc(Br)cn1 [Example 13, (4-Bromo-1H-pyrazol-1-yl)(4-(naphthalen-2-ylmethyl)piperazin-1-yl)methanone] | > 75 | > 75 | > 75 | > 75 | > 75 | > 75 | > 75 | > 75 | – | – | –
2 | O=C(N1CCN(Cc2ccc3ccccc3c2)CC1)n1cc(I)cn1 [Example 14, (4-Iodo-1H-pyrazol-1-yl)(4-(naphthalen-2-ylmethyl)piperazin-1-yl)methanone] | > 75 | > 75 | > 75 | > 75 | > 75 | > 75 | > 75 | > 75 | – | – | –
3 | COC(=O)c1cnn(C(=O)N2CCN(Cc3ccc4ccccc4c3)CC2)c1 [Example 15, Methyl 1-(4-(naphthalen-2-ylmethyl)piperazine-1-carbonyl)-1H-pyrazole-4-carboxylate] | > 75 | > 75 | > 75 | > 75 | > 75 | > 75 | > 75 | > 75 | – | – | –
4 | O=C(N1CCN(Cc2ccc(Oc3ccccc3)cc2)CC1)n1cccn1 [Example 16, (4-(4-Phenoxybenzyl)piperazin-1-yl)(1H-pyrazol-1-yl)methanone] | > 75 | > 75 | < 25 | > 75 | > 75 | > 75 | < 25 | > 75 | – | – | –
5 | Cc1cnn(C(=O)N2CCN(Cc3ccc(Oc4ccccc4)cc3)CC2)c1 [Example 17, (4-Methyl-1H-pyrazol-1-yl)(4-(4-phenoxybenzyl)piperazin-1-yl)methanone] | > 75 | > 75 | 25 to 75 | > 75 | > 75 | > 75 | 25 to 75 | < 25 | – | – | –
6 | N#Cc1cnn(C(=O)N2CCN(Cc3ccc(Oc4ccccc4)cc3)CC2)c1 [Example 18, 1-(4-(4-Phenoxybenzyl)piperazine-1-carbonyl)-1H-pyrazole-4-carbonitrile] | > 75 | > 75 | > 75 | > 75 | > 75 | > 75 | > 75 | > 75 | – | – | –
7 | O=C(N1CCN(Cc2ccc(OCc3ccccc3)cc2)CC1)n1cccn1 [Example 19, (4-(4-(Benzyloxy)benzyl)piperazin-1-yl)(1H-pyrazol-1-yl)methanone] | < 25 | > 75 | > 75 | > 75 | 25 to 75 | > 75 | < 25 | < 25 | – | – | –
8 | Cc1cnn(C(=O)N2CCN(Cc3ccc(OCc4ccccc4)cc3)CC2)c1 [Example 20, (4-(4-(Benzyloxy)benzyl)piperazin-1-yl)(4-methyl-1H-pyrazol-1-yl)methanone] | 25 to 75 | > 75 | < 25 | > 75 | 25 to 75 | > 75 | < 25 | 25 to 75 | – | – | –
9 | N#Cc1cnn(C(=O)N2CCN(Cc3ccc(OCc4ccccc4)cc3)CC2)c1 [Example 21, 1-(4-(4-(Benzyloxy)benzyl)piperazine-1-carbonyl)-1H-pyrazole-4-carbonitrile] | > 75 | > 75 | > 75 | > 75 | > 75 | > 75 | < 25 | > 75 | < 100 | < 100 | < 100
10 | O=C(N1CCN(Cc2ccc(-c3ccccc3)cc2)CC1)n1cccn1 [Example 22, (4-([1,1′-Biphenyl]-4-ylmethyl)piperazin-1-yl)(1H-pyrazol-1-yl)methanone] | < 25 | > 75 | < 25 | > 75 | > 75 | > 75 | < 25 | < 25 | – | – | –
11 | Cc1cnn(C(=O)N2CCN(Cc3ccc(-c4ccccc4)cc3)CC2)c1 [Example 23, (4-([1,1′-Biphenyl]-4-ylmethyl)piperazin-1-yl)(4-methyl-1H-pyrazol-1-yl)methanone] | 25 to 75 | > 75 | < 25 | 25 to 75 | > 75 | > 75 | < 25 | > 75 | – | – | –
12 | N#Cc1cnn(C(=O)N2CCN(Cc3ccc(-c4ccccc4)cc3)CC2)c1 [Example 24, 1-(4-([1,1′-Biphenyl]-4-ylmethyl)piperazine-1-carbonyl)-1H-pyrazole-4-carbonitrile] | > 75 | > 75 | > 75 | > 75 | > 75 | > 75 | > 75 | > 75 | – | – | –
13 | CC(C)(C)OC(=O)N1CCCN(C(=O)n2cccn2)CC1 [Example 25, tert-Butyl 4-(1H-pyrazole-1-carbonyl)-1,4-diazepane-1-carboxylate] | < 25 | 25 to 75 | < 25 | < 25 | < 25 | < 25 | < 25 | < 25 | – | – | –
14 | Cc1cnn(C(=O)N2CCCN(C(=O)OC(C)(C)C)CC2)c1 [Example 26, tert-Butyl 4-(4-methyl-1H-pyrazole-1-carbonyl)-1,4-diazepane-1-carboxylate] | 25 to 75 | > 75 | 25 to 75 | > 75 | < 25 | 25 to 75 | < 25 | < 25 | – | – | –
